This note sets out measurements from patent US20260297042A1, “BIARYLAMIDE DERIVATIVES AND THEIR USE AS PKMYT1 INHIBITORS” (CANCER RESEARCH TECHNOLOGY LIMITED, priority 2023, published 2026).

In experiment [1] the target is T1, Human PKMYT1 (Homo sapiens, UniProt Q99640).
T1 construct: Human PKMYT1 75-362 was cloned as a TEV cleavable 6xHis fusion; 6xHis (TEV cleavable) (cleaved yes); made in house; host or cells: bacterial cells
T1 sequence (Q99640 75-362): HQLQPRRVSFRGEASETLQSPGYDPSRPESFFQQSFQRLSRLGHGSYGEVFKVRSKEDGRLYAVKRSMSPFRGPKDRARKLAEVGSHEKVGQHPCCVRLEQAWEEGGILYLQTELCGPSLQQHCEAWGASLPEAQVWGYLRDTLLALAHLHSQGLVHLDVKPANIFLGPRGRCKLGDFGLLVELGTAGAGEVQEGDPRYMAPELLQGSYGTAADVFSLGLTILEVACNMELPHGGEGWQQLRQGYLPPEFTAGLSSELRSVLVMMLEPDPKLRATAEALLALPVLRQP
The experiment in a line: PKMYT1 biochemical ADP-Glo enzymatic assay. To be noted: ADP-Glo. An outline of the steps: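 IC50 values come from 10-point 3-fold series, with replicates required within 3-fold and r2 >0.9. ADP formed by PKMYT1 intrinsic ATPase (500 uM ATP, 60 min, 26° C.) was quantified by ADP-Glo luminescence. The enzyme was the TEV-cleaved kinase domain 75-362 at 15 nM, in HEPES pH 7.5 buffer.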
A general note: ADP-Glo first removes unused ATP, then detects ADP through luciferase.

Experiment [2] deals with T2, WEE1 (Homo sapiens, UniProt P30291).
T2 construct: purchased Thermo Fisher PR7373A
T2 sequence (P30291 whole entry): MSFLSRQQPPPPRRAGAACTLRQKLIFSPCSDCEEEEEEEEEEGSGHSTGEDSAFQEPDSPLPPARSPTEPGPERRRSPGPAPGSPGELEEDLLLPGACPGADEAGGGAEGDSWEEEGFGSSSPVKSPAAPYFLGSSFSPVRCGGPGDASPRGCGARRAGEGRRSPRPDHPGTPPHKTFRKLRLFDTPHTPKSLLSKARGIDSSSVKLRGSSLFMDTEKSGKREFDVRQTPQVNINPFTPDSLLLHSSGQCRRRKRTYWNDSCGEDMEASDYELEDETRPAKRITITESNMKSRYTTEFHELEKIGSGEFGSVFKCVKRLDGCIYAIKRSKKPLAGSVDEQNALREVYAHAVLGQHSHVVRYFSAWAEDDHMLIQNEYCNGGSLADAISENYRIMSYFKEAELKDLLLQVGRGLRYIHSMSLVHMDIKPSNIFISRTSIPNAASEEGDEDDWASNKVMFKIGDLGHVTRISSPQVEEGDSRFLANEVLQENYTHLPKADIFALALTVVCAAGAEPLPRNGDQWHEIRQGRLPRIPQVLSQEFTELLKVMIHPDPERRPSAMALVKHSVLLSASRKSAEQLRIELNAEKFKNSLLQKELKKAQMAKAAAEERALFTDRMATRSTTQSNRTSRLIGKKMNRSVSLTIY
The experiment in a line: Selectivity versus WEE1 assay (ADP-Glo enzymatic assay). The experiment is classed as biochemical. To be noted: for IC50: ADP-Glo; for PKMYT1 vs. WEE1 selectivity: fold difference in selectivity for PKMYT1 over WEE1. A digest of the protocol: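 ADP-Glo luminescent read-out after a 60-min, 26 °C kinase reaction of 15 nM WEE1 with 30 µM ATP, in HEPES pH 7.5 buffer containing MgCl2, EGTA, Brij-35 and 1% DMSO. IC50 accepted only when replicate values agree within 3-fold and curve fit r2 exceeds 0.9.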

The mark [3] stands for this setting: PKMYT1 kinase domain 15 nM, banded values.
Setting [4] is: 15 nM PKMYT1 kinase domain, 500 µM ATP, 60 minutes at 26° C., banded.
The mark [5] stands for this setting: 15 nM WEE1, 60 minutes at 26° C., banded.
[6] abbreviates: banded, ">N" = at least in this band but could be higher.

As a reminder, the IC50 is the concentration at which inhibition is half-maximal. High values mean lower potency, low ones higher potency.

For the molecule `Cc1ccc(O)c(C)c1NC(=O)c1cnc(Nc2ncc(F)cc2Cl)s1` [BAA-404, 2-((3-chloro-5-fluoropyridin-2-yl)amino)-N-(3-hydroxy-2,6-dimethylphenyl)thiazole-5-carboxamide], the IC50 was less than 50 nM in experiment [1] (setting [3]) and greater than 11000 nM in experiment [2] (WEE1 15 nM, banded values). Also, the “PKMYT1 vs. WEE1 selectivity” value in experiment [2] (banded) is reported as “Y (1000-5000 fold)”.

For the molecule `Cc1c(O)cc(Br)c(C)c1NC(=O)c1cnc(Nc2cc(C)n(C3CCS(=O)(=O)C3)n2)s1` (stereo not drawn) [BAA-563, N-(3-Bromo-5-hydroxy-2,6-dimethyl-phenyl)-2-[[1-(1,1-dioxothiolan-3-yl)-5-methyl-pyrazol-3-yl]amino]thiazole-5-carboxamide], the IC50 in experiment [1] (setting [3]) was 50 to 1000 nM; in experiment [2] (WEE1 15 nM, banded values), 1000 to 11000 nM. In experiment [2] (banded), the “PKMYT1 vs. WEE1 selectivity” value is recorded as “W (10-<100 fold)”.

Consider `Cc1ccc(O)c(C)c1NC(=O)c1cnc(Nc2ccn(CC(=O)N3CCOCC3)n2)s1` [BAA-033], for which the IC50 in experiment [1] (setting [4]) was less than 50 nM; in experiment [2] (setting [5]), greater than 11000 nM. The “PKMYT1 vs. WEE1 selectivity” value in experiment [2] (setting [6]) is reported as “X (100-<1000 fold)”.

For `Cc1ccc(O)c(C)c1NC(=O)c1cnc(Nc2ccn([C@@H]3CCN(C(=O)Cc4ccc(F)cc4)C3)n2)s1` [BAA-093], the IC50 is 50 to 1000 nM in experiment [1] (setting [4]) and greater than 11000 nM in experiment [2] (setting [5]). For the same molecule, the “PKMYT1 vs. WEE1 selectivity” value in experiment [2] (setting [6]) is reported as “>X (100-<1000 fold)”.

For `Cc1ccc(O)c(C)c1NC(=O)c1cnc(Nc2cc(C)n(CC(=O)O)n2)s1` [BAA-124, 2-[3-[[5-[(3-hydroxy-2,6-dimethyl-phenyl)carbamoyl]thiazol-2-yl]amino]-5-methyl-pyrazol-1-yl]acetic acid], the results for the IC50 in experiment [1] (setting [4]) and in experiment [2] (setting [5]) were less than 50 nM and greater than 11000 nM, respectively. In addition, the “PKMYT1 vs. WEE1 selectivity” value in experiment [2] (setting [6]) is “X (100-<1000 fold)”.

With `Cc1ccc(O)c(C)c1NC(=O)c1cnc(NCCCN2CCOCC2)s1` [BAA-065, N-(3-hydroxy-2,6-dimethyl-phenyl)-2-(3-morpholinopropylamino)thiazole-5-carboxamide], the IC50 is 50 to 1000 nM in experiment [1] (setting [4]) and greater than 11000 nM in experiment [2] (setting [5]). The “PKMYT1 vs. WEE1 selectivity” value in experiment [2] (setting [6]) was “>X (100-<1000 fold)”.

In the case of `COCc1cc(Nc2ncc(C(=O)Nc3c(C)ccc(O)c3C)s2)nn1C` [BAA-252, N-(3-hydroxy-2,6-dimethylphenyl)-2-((5-(methoxymethyl)-1-methyl-1H-pyrazol-3-yl)amino)thiazole-5-carboxamide], the IC50 in experiment [1] (setting [4]) is 50 to 1000 nM; in experiment [2] (setting [5]), 1000 to 11000 nM. Besides, the “PKMYT1 vs. WEE1 selectivity” value in experiment [2] (setting [6]) is reported as “X (100-<1000 fold)”.

With `CCNC(=O)Cn1ccc(Nc2ncc(C(=O)Nc3c(C)ccc(O)c3C)s2)n1` [BAA-188], the IC50 is less than 50 nM in experiment [1] (setting [4]) and greater than 11000 nM in experiment [2] (setting [5]). Further, in experiment [2] (setting [6]), the “PKMYT1 vs. WEE1 selectivity” value is “Y (1000-5000 fold)”.

As for `Cc1ccc(O)c(C)c1NC(=O)c1cnc(Nc2nc(C(F)(F)F)cs2)s1` [BAA-017], the IC50 was 50 to 1000 nM in experiment [1] (setting [4]) and greater than 11000 nM in experiment [2] (setting [5]). The “PKMYT1 vs. WEE1 selectivity” value in experiment [2] (setting [6]) was “>X (100-<1000 fold)”.

As for `Cc1ccc(O)c(C)c1NC(=O)c1cnc(N[C@@H](C)c2ccccc2)s1` [BAA-351, (S)-N-(3-hydroxy-2,6-dimethylphenyl)-2-((1-phenylethyl)amino) thiazole-5-carboxamide], the IC50 in experiment [1] (setting [4]) is 1000 to 11000 nM; in experiment [2] (setting [5]), greater than 11000 nM. In experiment [2] (setting [6]), the “PKMYT1 vs. WEE1 selectivity” value is “W (10-<100 fold)”.

As for `Cc1ccc(O)c(C)c1NC(=O)c1cnc(Nc2ccn(CC(=O)N3CC[C@H](O)C3)n2)s1` [BAA-162, N-(3-hydroxy-2,6-dimethyl-phenyl)-2-[1-[2-[(3S)-3-hydroxypyrrolidin-1-yl]-2-oxo-ethyl]pyrazol-3-ylamino]thiazole-5-carboxamide], the results for the IC50 in experiment [1] (setting [4]) and in experiment [2] (setting [5]) were less than 50 nM and greater than 11000 nM, respectively. Further, in experiment [2] (setting [6]), the “PKMYT1 vs. WEE1 selectivity” value is given as “Y (1000-5000 fold)”.

On to `Cc1ccc(O)c(C)c1NC(=O)c1cnc(Nc2ccn(C3CCN(C(=O)OC(C)(C)C)CC3)n2)s1` [BAA-031], for which the IC50 is 50 to 1000 nM in experiment [1] (setting [4]) and greater than 11000 nM in experiment [2] (setting [5]). For the same molecule, in experiment [2] (setting [6]), the “PKMYT1 vs. WEE1 selectivity” value is listed as “>X (100-<1000 fold)”.

With `Cc1cn(CC(=O)O)nc1Nc1ncc(C(=O)Nc2c(C)ccc(O)c2C)s1` [BAA-125, 2-[3-[[5-[(3-hydroxy-2,6-dimethyl-phenyl)carbamoyl]thiazol-2-yl]amino]-4-methyl-pyrazol-1-yl]acetic acid], the IC50 in experiment [1] (setting [4]) was less than 50 nM; in experiment [2] (setting [5]) it was greater than 11000 nM. Further, the “PKMYT1 vs. WEE1 selectivity” value in experiment [2] (setting [6]) is on record as “Y (1000-5000 fold)”.

Take `Cc1ccc(O)c(C)c1NC(=O)c1cnc(Nc2ccn(C(C)C)n2)s1` [BAA-008, N-(3-hydroxy-2,6-dimethyl-phenyl)-2-[(1-isopropylpyrazol-3-yl)amino]thiazole-5-carboxamide]: the IC50 was in the range of 50 to 1000 nM in experiment [1] (setting [4]) and 1000 to 11000 nM in experiment [2] (setting [5]). In experiment [2] (setting [6]), the “PKMYT1 vs. WEE1 selectivity” value is “X (100-<1000 fold)”.

On to `CCN(CC)C(=O)Cn1cc(C)c(Nc2ncc(C(=O)Nc3c(C)cc(Br)c(O)c3C)s2)n1` [BAA-608, N-(4-bromo-3-hydroxy-2,6-dimethylphenyl)-2-((1-(2-(diethylamino)-2-oxoethyl)-4-methyl-1H-pyrazol-3-yl)amino)thiazole-5-carboxamide], for which the IC50 in experiment [1] (setting [3]) was 50 to 1000 nM; in experiment [2] (WEE1 15 nM, banded values), greater than 11000 nM. Also, in experiment [2] (banded), the “PKMYT1 vs. WEE1 selectivity” value is recorded as “X (100-<1000 fold)”.

Regarding `Cc1cn(CC(=O)N2CCC2)nc1Nc1ncc(C(=O)Nc2c(C)ccc(O)c2C)s1` [BAA-374, 2-((1-(2-(azetidin-1-yl)-2-oxoethyl)-4-methyl-1H-pyrazol-3-yl)amino)-N-(3-hydroxy-2,6-dimethylphenyl)thiazole-5-carboxamide], the figures for the IC50 in experiment [1] (setting [4]) and in experiment [2] (setting [5]) were less than 50 nM and 1000 to 11000 nM, respectively. For the same molecule, the “PKMYT1 vs. WEE1 selectivity” value in experiment [2] (setting [6]) is listed as “X (100-<1000 fold)”.

Turning to `Cc1ccc(O)c(C)c1NC(=O)c1cnc(Nc2ccn(CC3CCOC3)n2)s1` (stereo not drawn) [BAA-032, N-(3-hydroxy-2,6-dimethyl-phenyl)-2-[[1-(tetrahydrofuran-3-ylmethyl)pyrazol-3-yl]amino]thiazole-5-carboxamide], the IC50 in experiment [1] (setting [4]) was in the range of 50 to 1000 nM; in experiment [2] (setting [5]) it was 1000 to 11000 nM. For the same molecule, in experiment [2] (setting [6]), the “PKMYT1 vs. WEE1 selectivity” value was “W (10-<100 fold)”.

As to `CNc1ncc(C(=O)Nc2c(C)ccc(O)c2C)s1` [BAA-221, N-(3-Hydroxy-2,6-dimethyl-phenyl)-2-(methylamino)thiazole-5-carboxamide], the results for the IC50 in experiment [1] (setting [4]) and in experiment [2] (setting [5]) were 50 to 1000 nM and greater than 11000 nM, respectively. Further, in experiment [2] (setting [6]), the “PKMYT1 vs. WEE1 selectivity” value is “X (100-<1000 fold)”.

As to `Cc1ccc(O)c(C)c1NC(=O)c1cnc(Nc2ccn(CC(=O)NCC3CCN(C(=O)OC(C)(C)C)CC3)n2)s1` [BAA-157], the IC50 was 50 to 1000 nM in experiment [1] (setting [4]) and greater than 11000 nM in experiment [2] (setting [5]). The “PKMYT1 vs. WEE1 selectivity” value in experiment [2] (setting [6]) was “X (100-<1000 fold)”.

`Cc1cn(C2CN(C(=O)OC(C)(C)C)C2)nc1Nc1ncc(C(=O)Nc2c(C)ccc(O)c2C)s1` [BAA-272, tert-butyl 3-(3-((5-((3-hydroxy-2,6-dimethylphenyl)carbamoyl)thiazol-2-yl)amino)-4-methyl-1H-pyrazol-1-yl)azetidine-1-carboxylate]: the IC50 is less than 50 nM in experiment [1] (setting [4]) and 50 to 1000 nM in experiment [2] (setting [5]). Further, the “PKMYT1 vs. WEE1 selectivity” value in experiment [2] (setting [6]) is given as “W (10-<100 fold)”.

Regarding `Cc1ccc(O)c(C)c1NC(=O)c1nnc(Nc2ccn(C3CCC3)n2)s1` [BAA-466, 5-((1-cyclobutyl-1H-pyrazol-3-yl)amino)-N-(3-hydroxy-2,6-dimethylphenyl)-1,3,4-thiadiazole-2-carboxamide], the IC50 was 50 to 1000 nM in experiment [1] (setting [3]) and greater than 11000 nM in experiment [2] (WEE1 15 nM, banded values). Besides, in experiment [2] (banded), the “PKMYT1 vs. WEE1 selectivity” value is recorded as “Y (1000-5000 fold)”.
